The record followed here is patent publication US7338778B2, “Luminescent method for determining cell oxygen consumption” (Becton, Dickinson and Company, priority 1991, dated 2008).

Test [1] has as its system HL60 cells. Kind of test: Cytotoxicity assay by MTT. The format is cell-based. Conditions: Homo sapiens, read-out: IC50 MTT. As for the experimental part:
In parallel with the oxygen sensor assays, MTT assays were performed using a Cell Titer Kit™ (Promega), as in Example 20, with the following exceptions. For each time point (corresponding to oxygen sensor assay time point), one flat-bottom 96 well microtiter plate (Falcon) was used. 50 uL of drug dilution in tissue culture media was used for initial reading and cells were suspended in 50 uL media, to the final volume of 100 uL. At indicated time points, 10 uL of MTT reagent was added per well for 1 hour, after which 100 uL of the stop/lysis buffer was added. Plates were sealed with Parafilm™ and cell lysis occurred overnight. Absorbance (570 nm corrected by absorbance at 750 nm) was read using a Thermomax Microplate Reader (Molecular Devices). Mean absorbance from 5 wells per data point, with standard deviation as error bars, was plotted against vinblastine concentration (FIG. 13).
These experiments was performed as described in Example 20, with the exception that appropriate dilutions of the above reagents were substituted for vinblastine: 0.01 nM to 10000 nM methotrexate, 0.00001 to 10 mM sodium azide, and 2 to 2000 uM SDS respectively.

For test [2], the system named is HL60 cells. Kind of test: Cytotoxicity assay in oxygen sensor plates. The format is cell-based. Conditions: Homo sapiens, read-out: IC50 O2 Sensor. Here is the method:
Oxygen sensor plates were prepared by the general methods described herein. Falcon 1177 polystyrene 96 well U-bottom plates (BD Labware) were used for all experiments. The fluorescent dye Ru(DPP)3Cl2 was adsorbed to silica gel by rotary evaporation of ethanolic solutions of the dye with the silica gel. The adsorbed dye-silica and a moisture-cure clear silicone were mixed manually and immediately applied to plate wells with approximately 17 uL silicone per well. These were cured for 2-3 days in a controlled humidity incubator.
All data was obtained with a BMG Polarstar fluorimeter at 37° C. using the bottom plate reading configuration. The bandpass filters were 465 nm for excitation and 590 nm for emission. For the experiments with […]®, a Cytofluor 4000 fluorometer was used with a 485 nm excitation filter and a 580 nm emission filter. Data was read at selected time intervals. Normalized fluorescence data was generally obtained by dividing well values at selected time points by the same well's initial reading with only media or buffer present prior to adding cells.
Cells used for cytotoxicity and quantitation experiments (HL60, U937; ATCC) were grown in tissue culture media recommended by the supplier (RPMI; Gibco and ATCC, respectively). The media was supplemented with either 20% fetal bovine serum (Hyclone) for the HL60 cells or 10% FBS for the U937 cells, with the addition of penicillin, streptomycin and fungizone (Gibco) to prevent microbial contamination. Cells were maintained in a tissue culture incubator (37° C., 5% CO2, 95% humidity) during all experiments between readings.
HL60 cells (human promyelocytic leukemia cell line, ATCC #45500) were grown in tissue culture media recommended by the supplier (RPMI; Gibco), supplemented with 20% fetal bovine serum, heat inactivated at 50° C. for thirty minutes with the addition of penicillin, streptomycin and fungizone (Gibco) to prevent microbial contamination. Cells were maintained in tissue culture incubator (37° C., 5% CO2, 95% humidity) during all experiments. Fluorescence of the oxygen sensor was read on a Polarstar™ fluorometer (BMG), using 465 nm excitation and 590 nm emission filters.
100 uL of tissue culture media was aliquoted into the wells of the Oxygen sensor plate and plate was allowed to equilibrate in the tissue culture incubator for 1 hour prior to taking the initial reading. This reading was used to normalize all subsequent readings to account for well to well variability. Cells were resuspended in fresh media at 960,000 cells/mi. Serial 1:2 dilution of this stock was performed and 100 uL of each dilution was alliquoted across the length of the plate in replicates of 12 (rows B-H), with final cell/well number from 1,500 to 96,000. In row A, 100 uL of tissue culture media was alliquoted into the wells in lieu of cells (no-cells control). Fluorescence measurements were taken every 24 hours over 5 days. The actual number of cells present was counted with a hemocytometer by sampling the parallel well (same seeding cell number). Mean fluorescence from 5 wells per data point (n=5) was plotted against the counted cell number (FIG. 10). Error bars are standard deviation of the mean.
The experiment was performed as described in Example 18, with the following exceptions. Serial dilutions of vinblastine were prepared at twice the final concentration (100 nM to 0.1 nM) in tissue culture media.100 uL of the drug dilution in tissue culture media was aliquoted across the width of the plate in replicates of five, reserving one column for no-drug (media only) control. After an initial reading, a constant number of cells (200,000/well) in 100 uL media were added to each well of rows A-E of the oxygen sensor plate, reserving rows F-H for no-cells control. Fluorescence was read at the indicated times. Mean fluorescence from 5 wells per data point (n=5) was plotted against vinblastine concentration (FIG. 12).

The subject of test [3] is E. coli (ATCC #25922). Kind of test: Effect of antibiotics on oxygen consumption of E. coli, DPA indicator tray (Example 10). The format is cell-based. The note with it: all concentrations (0.5 to 8 ug/ml), 4 hours.
Test [4] has as its system E. coli (ATCC #25922). Kind of test: Effect of antibiotics on E. coli, Ru(DPP)3Cl2 indicator tray (Example 8). It is filed as cell-based. Conditions: all concentrations (0.5 to 8 ug/ml), 4 hours. As for the experimental part:
(§1) A 0.5 McFarland suspension of E. coli (ATCC #25922) in Broth A (see Example 1) was prepared using an A-Just nephelometer. […] The trays were incubated at 37° C. for 4 hours and their fluorescence measured in a Fluoroskan II fluorometer.
The fluorescent compound tris 4,7-diphenyl-1,10-phenanthroline ruthenium (II) chloride (Ru(DPP)3Cl2) was synthesized using the procedure of Watts and Crosby (J. Am.Chem. Soc. 93, 3184(1971)). A total of 3.6 mg of the compound was dissolved in 2.0 ml dimethyl sulfoxide (D-5879, Sigma Chemical, St. Louis, Mo.) and the resultant solution was then added slowly, with stirring, to 1300 ml silicone rubber forming solution (Water Based Emulsion #3-5024, Dow Corning, Midland, Mich.). A 35 microliter aliquot of the mixture was subsequently dispensed into each well of a 96 well, flat bottom, white microtiter tray (#011-010-7901, Dynatech, Chantilly, Va.), and the system was subsequently cured overnight in a low humidity (less than 25% RH), 60° C. incubator. After curing, the trays were washed by either soaking or by filling and emptying each well several times with each of the following reagents; a) absolute ethanol, b) 0.1 M phosphate buffer pH 7.2, c) hot distilled water (about 45° C.) and d) ambient temperature distilled water.

Test [5] has as its system E. coli (ATCC #25922). Kind of test: Effect of antibiotics on oxygen consumption of E. coli, Ru(BiPy)3Cl2 indicator tray (Example 9). The format is cell-based. Conditions: all concentrations (0.5 to 8 ug/ml), 4 hours. Here is the method:
A 96 well Microtiter tray was produced essentially as in Example 1, except that tris-(2,2′ bipyridyl)-ruthenium (II) chloride hexahydrate (Aldrich Chemical Company, Milwaukee, Wis.) [Ru(BiPy)3Cl2] was substituted for Ru(DPP)3Cl2 in the silicone mixture. A second tray containing 9,10-diphenyl anthracene (DPA) was also prepared. All wells were charged with 150 ul of 1×10^7 CFU/ml E. coli (ATCC #25922) in broth. Table 3 lists the results at 0, 1, 2, 3, and 4 hours after addition of organisms.
as §1

Test [6] concerns Pseudomonas aeruginosa (ATCC #10145). The note with it: 1.5×10^8 CFU/ml, 37° C., times less than two hours. Here is the method:
A suspension containing about 3×10^8 CFU/ml, of Pseudomonas aeruginosa (ATCC #10145) in Broth A was prepared using an A-Just nephelometer. A total of 150 ul of the suspension was placed in each well of the indicator trays prepared as in Example 1; these suspensions were then diluted with solutions of phenol or copper sulfate (which are deleterious to microbial growth) to a final concentration of 1.5×10^8 CFU/ml. The trays were incubated at 37° C. and their fluorescence measured in a Fluoroskan II at 10 minute intervals.

Regarding `[N-]=[N+]=[N-]` [Sodium Azide, sodium azide], the IC50 with HL60 cells [1] (HL-60, 48 h) was found to be 25 µM; with HL60 cells [1] (HL-60, 72 h) it was 25 µM; in the test with HL60 cells [1] (HL-60, 96 h), 3 µM; with HL60 cells [1] (HL-60, 120 h), 1.6 µM; in the test on HL60 cells [2] (HL-60, 48 h), 13 µM; with HL60 cells [2] (HL-60, 72 h), 13 µM. Moreover, the IC50 was 9 µM in the test on HL60 cells [2] (HL-60, 96 h) and 5.8 µM in the test with HL60 cells [2] (HL-60, 120 h).
Regarding `CC[C@]1(O)C[C@@H]2CN(CCc3c([nH]c4ccccc34)[C@@](C(=O)OC)(c3cc4c(cc3OC)N(C)[C@H]3[C@@](O)(C(=O)OC)[C@H](OC(C)=O)[C@]5(CC)C=CCN6CC[C@]43[C@@H]65)C2)C1` [Vinblastine, vinblastine], the half-maximal inhibitory concentration (IC50) was found to be 0.009 µM with HL60 cells [1] (HL-60, HL60 cells, 48 hours); 0.008 µM in the test on HL60 cells [1] (HL-60, HL60 cells, 72 hours); 0.007 µM in the test on HL60 cells [1] (HL-60, HL60 cells, 96 hours); 0.0064 µM in the test on HL60 cells [1] (HL-60, HL60 cells, 120 hours); 0.011 µM in the test with HL60 cells [2] (HL-60, HL60 cells, 48 hours); 0.011 µM in the test on HL60 cells [2] (HL-60, HL60 cells, 72 hours). For the same compound, the IC50 turned out to be 0.009 µM in the test with HL60 cells [2] (HL-60, HL60 cells, 96 hours) and 0.009 µM in the test on HL60 cells [2] (HL-60, HL60 cells, 120 hours).
Take `O=C(O)c1cn(C2CC2)c2cc(N3CCNCC3)c(F)cc2c1=O` [Ciprofloxacin, ciprofloxacin]: the “susceptibility of E. coli by fluorescence counts” value in the test with E. coli (ATCC #25922) [3], in the test on E. coli (ATCC #25922) [4] and in the test with E. coli (ATCC #25922) [5] was “sensitive” throughout.
`O=S(=O)([O-])[O-].[Cu+2]` [copper sulfate]: the “concentration at which wells had no increase in fluorescence signal (absence of actively metabolizing organisms)” value in test [6] is “greater than 500 mg/liter”.
Consider `CN(Cc1cnc2nc(N)nc(N)c2n1)c1ccc(C(=O)N[C@@H](CCC(=O)O)C(=O)O)cc1` [Methotrexate, methotrexate], for which the half-maximal inhibitory concentration (IC50) in the test on HL60 cells [1] (HL-60, HL60 cells, 120 hours) is 0.014 µM; with HL60 cells [2] (HL-60, HL60 cells, 96 hours), 0.019 µM; in the test on HL60 cells [2] (HL-60, HL60 cells, 120 hours), 0.012 µM.
As for `CCCCCCCCCCCCOS(=O)(=O)[O-].[Na+]` [SDS, Sodium Dodecyl Sulfate], the 50% inhibitory concentration (IC50) with HL60 cells [1] (HL-60, HL60 cells, 24 hours) was determined as 500 µM; in the test with HL60 cells [1] (HL-60, HL60 cells, 48 hours), 440 µM; with HL60 cells [1] (HL-60, HL60 cells, 72 hours), 430 µM; with HL60 cells [2] (HL-60, HL60 cells, 24 hours) it was 340 µM; in the test with HL60 cells [2] (HL-60, HL60 cells, 48 hours) it was 300 µM; with HL60 cells [2] (HL-60, HL60 cells, 72 hours) it was 300 µM.
Regarding `Oc1ccccc1` [phenol], in test [6], the “concentration at which wells had no increase in fluorescence signal (absence of actively metabolizing organisms)” value is recorded as not below 1 gram/liter.

In general, IC50 refers to the concentration needed to halve the response being measured.
